Results as given in patent US20250250298A1, “ONCOLYTIC PEPTIDE AND USE THEREOF” (Rise Biopharmaceuticals Inc., priority 2022, published 2025).
Where a SMILES comes first, the peptide text is derived from it.

Legend:
HFW (Human fibroblast) = test: MTT cytotoxicity, HFW; type: cell-based; conditions: 24 hours incubation
Excerpt: (§1) The MTT assay is a colorimetric method for measuring the activity of enzymes in living cells that reduces Thiazolyl blue tetrazolium bromide (MTT) to formazan dyes showing a purple color. In this embodiment, a colorimetric 3-(4.5-dimethylthiazol-2-yl)-2.5-diphenyltetrazodium bromide (MTT) viability assay was used to assess the in vitro cytotoxicity of oncolytic peptides.
(§2) The half inhibition concentration (IC50) is the concentration required by the oncolytic peptides to reach fifty percent inhibition. In one embodiment, the oncolytic peptides were used for IC50 test via MTT colorimetric assay.
(§3) Human lung cancer lines PC9 and A549 and murine pancreatic cancer cell line Panc02 were cultured in RPMI medium supplemented with 10% fetal bovine serum and antibiotic in this embodiment. Additionally, murine hepatoma cell line Hepa 1-6, murine melanoma cell line B16-F10, murine fibrosarcoma cell line MN-11, murine mammary cancer cell line E0771 and human diploid fibroblast (HFW) were cultured in DMEM medium supplemented with 10% fetal bovine serum and antibiotic. Cells were cultured in a humidified incubator containing 5% CO2 at 37° C.
(§4) All cancer cell lines were seeded in a 96-well plate with a concentration of 5000-8000 cells/100 μl/well and incubated for 24 hrs. After medium was removed, 100 μl fresh medium containing peptide (ranging from 50 μM to 0.8 μM) was added to the wells. Following 24 hours incubation, fresh medium with MTT (0.5 mg/ml) was replaced and incubated for 3 hours. After medium/MTT was removed, DMSO was added at 100 μl for dissolving the formazan crystal. Cell survival rate was calculated by measuring the absorbance at 540 nm using a Multi-labeled Microplate Reader (Sunrise™, TECAN).

[1] = system: Hepa I-6 (Murine hepatocellular carcinoma); test: MTT cytotoxicity, Hepa 1-6; type: cell-based; conditions: Hepa I-6, 24 hours incubation
Excerpt: as §1, §2, §3, §4

[2] = system: MN-11 (Murine fibrosarcoma); test: MTT cytotoxicity, MN-11; type: cell-based; conditions: MN-11, 24 hours incubation
Excerpt: as §1, §2, §3, §4

[3] = system: A549 (Human non-small cell lung cancer cell); test: MTT cytotoxicity, A549; type: cell-based; conditions: A549, 24 hours incubation
Excerpt: as §1, §2, §3, §4

[4] = system: OECM-1 (Human oral cancer cell); test: MTT cytotoxicity, OECM-1; type: cell-based; conditions: OECM-1, 24 hours incubation
Excerpt: as §1, §2, §4

[5] = system: HCT-15 (Human colorectal cancer); test: MTT cytotoxicity, HCT-15; type: cell-based; conditions: HCT-15, 24 hours incubation
Excerpt: as §1, §2, §4

[6] = system: A375 (human malignant melanoma); test: MTT cytotoxicity, A375; type: cell-based; conditions: A375, 24 hours incubation
Excerpt: as §1, §2, §4

RBC (Human blood cell) = test: Cytotoxicity, RBC; type: cell-based
Excerpt: as §2

[7] = Peptide stability in serum; type: in vitro ADME; conditions: 25% (vol/vol) bovine calf serum
Procedure: Since this kind of peptide is highly toxic, the hope is that the peptide can be decomposed after inducing cancer cells to release danger-associated molecular patterns (DAMPs), and will not stay in the body for too long. After exposure to 25% (vol/vol) bovine calf serum, the residues of peptides were analyzed by liquid chromatography, and the stability at different time points was calculated.

B16-F10 melanoma = type: in vivo; conditions: B16-F10 tumor-bearing C57BL/6 mice
Procedure: FIGS. 1A-1B are schematic diagrams of B16-F10 melanoma experiments. The right flank of the mouse was administrated with SEQ ID NO:9, and the left flank of the mouse was untreated (tumor only) in FIG. 1A. […] (3×10^6B16-F10 cells per mouse/50 μl RPMI-1640). Palpable tumors (20-30 mm^3) were injected […] (IT.) with single doses of SEQ ID NO:9 dissolved in PBS (1.0 mg peptide/50 μl PBS) once a day for 5 consecutive days, and the vehicle control was saline only (0.9% NaCl).
(§5) Female C57BL/6 mice (4- to 6-week old) as allogeneic model animals were purchased from BioLASCO Taiwan Co., Ltd. and maintained in a specific pathogen-free and controlled environment. During the experiments, female mice, weighing 18.0-24.0 g each, were kept in groups of 4 to 6 animals per cage under climate-controlled conditions, with 12 h light/dark cycles and an ambient temperature. The mice were housed in an enriched individually ventilated cage (IVC) system with free access to standard rodent chow and water ad libitum. The animals were anesthetized during the experimental procedures with 2.5% isoflurane gas. The animals were monitored daily. All procedures were conducted according to the regulations of Laboratory Animal Care and Use Committee or Group Setup and Management and the law of Animal Protection.
Palpable tumors (for example, 20-30 mm^3 for B16-F10 tumor-bearing mice, 100 mm^3 for MN-11 tumor-bearing mice, 75 mm^3 for E0771 tumor-bearing mice) were injected (IT.) with single doses of SEQ ID NO:9 dissolved in PBS (1.0 mg peptide/50 μl PBS) once a day for 5 consecutive days, and the vehicle control was saline only (0.9% NaCl).
Tumor size was measured 3 times a week using a caliper, and the volume of tumors was calculated using the following formula: Tumor size (mm^3)=0.5×(width^2×length). The results were shown as volume±SEM. The survival rates of tumor-bearing mice were observed and recorded continuously until all animals died.
To evaluate the effect of SEQ ID NO:9 in vivo, the B16-F10 allogeneic model was used in C57BL/6 mice (FIGS. 1A-1B). […]

MN-11 fibrosarcoma = type: in vivo; conditions: MN-11 tumor-bearing C57BL/6 mice
Procedure: FIGS. 4A-4B are schematic diagrams of MN-11 fibrosarcoma experiments. FIG. 4A: The right flank of the mouse was administrated with SEQ ID NO:9, and the left flank of the mouse was untreated (tumor only). […] Palpable tumors (100 mm^3) were injected (IT.) with single doses of SEQ ID NO:9 dissolved in PBS (1.0 mg peptide/50 μl PBS) once a day for 5 consecutive days, and the vehicle control was saline only (0.9% NaCl).
as §5, with “All procedures were conducted according to the regulations of Laboratory Animal Care and Use Committee or Group Setup and Management and the law of Animal Protection.” left out
Tumor size was measured 3 times a week using a caliper, and the volume of tumors was calculated using the following formula: Tumor size (mm^3)=0.5×(width^2×length). […] The survival rates of tumor-bearing mice were observed and recorded continuously until all animals died. […]

[8] = IT. 1.0 mg once a day for 5 days, vs untreated controls
[9] = IT. 1.0 mg peptide/50 μl PBS once a day for 5 consecutive days, vs saline control

CC(C)C[C@H](NC(=O)[C@H](Cc1ccc2ccccc2c1)NC(=O)[C@H](CCCCN)NC(=O)[C@H](CC(C)C)NC(=O)[C@H](Cc1c[nH]c2ccccc12)NC(=O)[C@H](CCCCN)NC(=O)[C@H](CCCNC(=N)N)NC(=O)[C@H](Cc1c[nH]c2ccccc12)NC(=O)[C@H](CCCNC(=N)N)NC(=O)[C@H](CCCNC(=N)N)NC(=O)[C@H](CCCCN)NC(=O)[C@H](CCCCN)NC(=O)[C@H](CCCCN)NC(=O)[C@@H](N)CCCCN)C(=O)N[C@@H](C)C(=O)N[C@@H](CCCCN)C(N)=O [SEQ ID NO: 9, KKKK-RR-WRK-WLK-Nal-LA-K-NH2] (HELM PEPTIDE1{K.K.K.K.R.R.W.R.K.W.L.K.[O=C([C@H](Cc1ccc2ccccc2c1)N[*:1])[*:2]].L.A.K.[am]}$$$$V2.0; N-terminus assumed)
IC50 (HFW (Human fibroblast)): 3.38 µM
IC50 [1]: 1.69 µM
IC50 [2]: 2.9 µM
IC50 [3]: 2.79 µM
IC50 [4]: 6.36 µM
IC50 [5]: 2.42 µM
IC50 [6]: 3.84 µM
IC50 (RBC (Human blood cell)): 25.7 µM
Serum stability (residual peptide) ([7]; 0 hr): 100.00%
remaining at 0.5 h ([7]; 0.5 hr, read-out: Serum stability (residual peptide)): 90.7%
remaining at 1 h ([7]; 1 hr, read-out: Serum stability (residual peptide)): 76.2%
remaining at 2 h ([7]; 2 hr, read-out: Serum stability (residual peptide)): 77.9%
remaining at 4 h ([7]; 4 hr, read-out: Serum stability (residual peptide)): 70.9%
remaining at 6 h ([7]; 6 hr, read-out: Serum stability (residual peptide)): 74.2%
remaining at 8 h ([7]; 8 hr, read-out: Serum stability (residual peptide)): 55.8%
Survival (lifespan) (B16-F10 melanoma; [8]): extended the lifespan
Tumor growth, treated tumor (right flank) (B16-F10 melanoma; [9]): significantly inhibited tumor growth
Tumor growth, distal tumor (left side) (B16-F10 melanoma; untreated left flank, peptide IT. into right flank 1.0 mg once a day for 5 days): also inhibited
Survival (lifespan) (MN-11 fibrosarcoma; [8]): extended the lifespan
Tumor growth, treated tumor (right side) (MN-11 fibrosarcoma; [9]): significantly inhibited unilateral (right side) tumor growth
